Test results: US11149035B2, “Chemical compounds as H—PGDS inhibitors” (GlaxoSmithKline Intellectual Property Development Limited, priority 2017, dated 2021)

Legend:
[1] = tested on: limb muscle injury in male C57Bl/6N mice; assay: In vivo assay for functional response to muscle injury (eccentric contraction-induced muscle fatigue); parameters: species or system mouse; settings: FIG. 1
From the text: Under anesthesia, the right hind limb of a mouse is restrained at the knee and the foot attached to a motorized footplate/force transducer. Needle electrodes are inserted into the upper limb, either side of the sciatic nerve and a current sufficient to elicit a maximal muscle contraction is applied. Muscle tension is produced by moving the footplate to lengthen the plantarflexor muscles while the limb is under maximal stimulation. This is repeated 60 times to fatigue the muscles of the lower limb. Anesthesia, limb immobilization and limb stimulation are then repeated at regular intervals to measure maximal isometric force in the recovering limb. 7 to 9 animals are tested for each test condition.

[2] = tested on: prostaglandin D2 generation following 48/80-induced mast cell degranulation; assay: In vivo mast cell activation (compound 48/80-induced degranulation, PGD2 in peritoneal lavage by LC/MS/MS); parameters: species or system mouse; settings: normal C57Bl6/N mice; oral 0.1-10 mg/kg ~1 hour prior to 48/80 i.p.; peritoneal lavage 7 minutes afterwards; FIG. 2
Procedure: Mice were randomized by body weight into 8 groups (n=8): Vehicle (0.5% HPML with 0.1% Tween80)+phosphate buffered saline (PBS), vehicle+compound 48/80 (0.75 mg/ml) and compound 48/80+Example 21 at various doses ranging from 0.1 mg/kg to 10 mg/kg.
C57BL mice were dosed orally with vehicle, or Example 21 at 0.1, 0.3, 1, 3, & 10 mg/kg. One hour later, blood samples were withdrawn via tail snip for measurement of drug levels, and mice were then terminally anesthetized with 2% isoflurane and given an intraperitoneal injection of 0.2 mL PBS or compound 48/80 solution (0.75 mg/mL, Sigma), followed by gentle massage of the abdomen. Mice were kept under anesthesia for 7 minutes prior to euthanasia. […]
Samples were thawed at room temperature and vortex-mixed. […] The plate was vortex-mixed for 30 seconds at 1000 rpm and analyzed by LC/MS/MS.
The analytical system consisted of a CTC HTS PAL autoinjector (Leap, Carrboro, N.C.), an Agilent 1290 Infinity binary pump and thermostated column compartment (Agilent Technologies, Santa Clara, Calif.) and an AB Sciex QTRAP 5500 mass spectrometer (AB Sciex, Framingham, Mass.). […] The analytes were detected by multiple reaction monitoring (MRM) in negative mode using Turbolon spray with the transitions of m/z 351/271 amu for PGD2/PGE2 and m/z 360/280 amu for PGD2-d9/PGE2-d9. […]

CC(C)(O)[C@H]1CC[C@H](NC(=O)c2cnc3nc(C4CC4)ccc3c2)CC1 [Example 21, 7-Cyclopropyl-N-((trans)-4-(2-hydroxypropan-2-yl)cyclohexyl)-1,8-naphthyridine-3-carboxamide]
kinetics of recovery of maximal isometric force after injury ([1]; PO 3 and 10 mg/kg QD beginning 10 min prior to eccentric contraction challenge): acceleration in the kinetics of recovery | initial magnitude of the injury (isometric limb force 24 hours following protocol initiation) ([1]; PO 3 and 10 mg/kg QD, 24 hours): reduced the initial magnitude of the injury | 48/80-induced PGD2 generation in lavage fluid [2]: prevents 48/80-induced PGD2 generation
